Values after ≈ are worked out from the molar mass of the structure shown. Read-outs that look alike come from different tables or passages of the source.
Legend:
Solubility assay [1] = type: physicochemical; conditions: for solubility: 0.1 M hydrochloric acid, simulated gastric fluid
HER-2 kinase = HER-2 kinase (Homo sapiens, UniProt P04626); test: HER-2 kinase activity assay (time-resolved fluorescence); type: biochemical; conditions: table of the HER-2 kinase activity assay; human-derived recombinant HER-2 kinase, 20 μM ATP, 25° C., 45 minutes; read-out: IC50 (HER-2/SK-BR-3)
Protocol: The in vitro HER-2 kinase activity was tested by the following assay.
The following assay was used to determine the activity of the compounds of the present invention for inhibiting HER-2 kinase. The half maximal inhibitory concentration IC50 (the concentration of the test compound showing 50% inhibition of the enzyme activity) of each compound was determined by incubating several different concentrations of the test compounds with a specific enzyme and substrate. […] The HER-2 kinase activity was determined by using a time-resolved fluorescence method.

[2] = test system: human carcinoma SK-BR-3 cells, which have high expression of HER-2; test: HER-2 cell activity assay (SRB, 96 hours); type: cell-based
Description: The following in vitro assay was to determine the activity of the compounds of the present invention for inhibiting the proliferation of human carcinoma SK-BR-3 cells, which have high expression of HER-2.
The following in vitro assay was to determine the activity of the test compounds for inhibiting the angiogenesis and proliferation of cancer cells, which have high expression of HER-2. The activity is represented by the IC50 value. The general procedure of the assay was as follows: the cancer cells line SK-BR-3 highly expressing HER-2 was chosen and the cells were seeded in a 96-well cell culture plate at a suitable density. The cells then were incubated in a carbon dioxide incubator until they reached 60% confluence. Then, the cell culture medium was replaced by fresh medium with the test compounds at various concentrations (6 to 7 concentrations). The cells were put back in the incubator and cultured continuously for 96 hours. The activity of the test compounds for inhibiting the cell proliferation was determined by using a Sulforhodamine B (SRB) method. IC50 values of test cells were calculated by the rate of inhibition at various concentrations of the test compounds.

[3] = Pharmacokinetics assay in rats (LC/MS/MS of plasma); type: in vivo, Sprague Dawley (SD) rats; conditions: rat; for Vd/F: read-out: Vz/F
Protocol: The rats were used as test animals. The compound of formula (I) and other salts thereof were administrated intragastrically, and a maleate salt of the compound of formula (I) was injected into the tail vein to determine the drug concentration in plasma at different time points by an LC/MS/MS method. The pharmacokinetic behavior, characteristics and the oral absolute bioavailability of the present compounds were studied and evaluated in rats. […] 28 healthy adult Sprague Dawley (SD) rats, half male and half female, were purchased from SINO-BRITSH SIPPR/BK LAB. ANIMAL LTD., CO, License number: SCXK (Shanghai) 2008-0016, and divided into 7 groups (4 rats in each group). The intravenous injection group: a suitable amount of compounds was weighed, dissolved in DMSO and diluted with normal saline to the final volume. […] healthy adult SD rats, half male and half female, were divided into 7 groups (4 rats in each group). […] For the intravenous injection group, blood samples (0.2 mL) were taken from orbital sinus before administration and at 2 min, 15 min, 30 min, 1.0 […] and 36.0 h after administration, stored in heparinized tubes and centrifuged for 10 minutes at 3,500 rpm to separate blood plasma. The plasma samples were stored at -20° C. For the intragastrical administration group, blood samples were taken before administration and at 0.5, 1.0, 2.0, 3.0, 4.0, 6.0, 8.0, 12.0, 24.0 and 36.0 hours after administration. The method to treat the samples was the same as with the intravenous injection group. The rats were fed 2 hours after administration.

Solubility assay [4] = type: physicochemical
Protocol: According to the conventional solubility measurement, the solubility of a compound of formula (I) and salts thereof was determined in three different systems: water, physiological saline and methanol.

[5] = test system: human epidermoid carcinoma A431 cells, which have high expression of EGFR; test: EGFR cell proliferation inhibition assay (SRB, 72 hours); type: cell-based; conditions: read-out: IC50 (EGFR/A431)
Protocol: The activity is represented by the IC50 value. The general procedures of the assay were as follows: the cancer cells A431 highly expressing EGFR were chosen and seeded in a 96-well cell culture plate at a suitable density (e.g., 5000 cells/mL medium). The cells were then incubated in a carbon dioxide incubator until they reached 85% confluence. Then, the cell culture medium was replaced by fresh medium containing the test compounds with serial dilutions (general 6 to 7 concentrations). The cells were put back in the incubator and cultured continuously for 72 hours. The activity of the test compounds for inhibiting the cell proliferation was determined by using a Sulforhodamine B (SRB) method. IC50 values were calculated by the rate of inhibition at various concentrations of the test compounds.

[6] = both sexes, Sprague-Dawley, plasma, iv, 25 mg/kg, vein (tail vein injection)
[7] = both sexes, Sprague-Dawley, plasma, iv, 25 mg/kg, vein (tail vein injection), read-out: AUC0-t
[8] = both sexes, Sprague-Dawley, plasma, iv, 25 mg/kg, vein (tail vein injection), read-out: MRT
[9] = physiological saline, saline or isotonic, physiological saline, read-out: Solubility Value, Physiological saline
[10] = vein (tail vein injection), 25 mg/kg
[11] = both sexes, Sprague-Dawley, plasma, po, 25 mg/kg, gavage
[12] = both sexes, Sprague-Dawley, plasma, po, 25 mg/kg, gavage, read-out: AUC0-t
[13] = both sexes, Sprague-Dawley, plasma, po, 25 mg/kg, gavage, read-out: Cmax
[14] = both sexes, Sprague-Dawley, plasma, po, 25 mg/kg, gavage, read-out: MRT
[15] = vein (tail vein injection), 25 mg/kg, dimaleate
[16] = water, read-out: Solubility Value, Water
[17] = gavage, 25 mg/kg, dimethanesulfonate
[18] = vein (tail vein injection), 25 mg/kg, dimethanesulfonate
[19] = gavage, 25 mg/kg, trimethanesulphonate
[20] = vein (tail vein injection), 25 mg/kg, trimethanesulphonate

HER-2 kinase, sequence (P04626 23-1255): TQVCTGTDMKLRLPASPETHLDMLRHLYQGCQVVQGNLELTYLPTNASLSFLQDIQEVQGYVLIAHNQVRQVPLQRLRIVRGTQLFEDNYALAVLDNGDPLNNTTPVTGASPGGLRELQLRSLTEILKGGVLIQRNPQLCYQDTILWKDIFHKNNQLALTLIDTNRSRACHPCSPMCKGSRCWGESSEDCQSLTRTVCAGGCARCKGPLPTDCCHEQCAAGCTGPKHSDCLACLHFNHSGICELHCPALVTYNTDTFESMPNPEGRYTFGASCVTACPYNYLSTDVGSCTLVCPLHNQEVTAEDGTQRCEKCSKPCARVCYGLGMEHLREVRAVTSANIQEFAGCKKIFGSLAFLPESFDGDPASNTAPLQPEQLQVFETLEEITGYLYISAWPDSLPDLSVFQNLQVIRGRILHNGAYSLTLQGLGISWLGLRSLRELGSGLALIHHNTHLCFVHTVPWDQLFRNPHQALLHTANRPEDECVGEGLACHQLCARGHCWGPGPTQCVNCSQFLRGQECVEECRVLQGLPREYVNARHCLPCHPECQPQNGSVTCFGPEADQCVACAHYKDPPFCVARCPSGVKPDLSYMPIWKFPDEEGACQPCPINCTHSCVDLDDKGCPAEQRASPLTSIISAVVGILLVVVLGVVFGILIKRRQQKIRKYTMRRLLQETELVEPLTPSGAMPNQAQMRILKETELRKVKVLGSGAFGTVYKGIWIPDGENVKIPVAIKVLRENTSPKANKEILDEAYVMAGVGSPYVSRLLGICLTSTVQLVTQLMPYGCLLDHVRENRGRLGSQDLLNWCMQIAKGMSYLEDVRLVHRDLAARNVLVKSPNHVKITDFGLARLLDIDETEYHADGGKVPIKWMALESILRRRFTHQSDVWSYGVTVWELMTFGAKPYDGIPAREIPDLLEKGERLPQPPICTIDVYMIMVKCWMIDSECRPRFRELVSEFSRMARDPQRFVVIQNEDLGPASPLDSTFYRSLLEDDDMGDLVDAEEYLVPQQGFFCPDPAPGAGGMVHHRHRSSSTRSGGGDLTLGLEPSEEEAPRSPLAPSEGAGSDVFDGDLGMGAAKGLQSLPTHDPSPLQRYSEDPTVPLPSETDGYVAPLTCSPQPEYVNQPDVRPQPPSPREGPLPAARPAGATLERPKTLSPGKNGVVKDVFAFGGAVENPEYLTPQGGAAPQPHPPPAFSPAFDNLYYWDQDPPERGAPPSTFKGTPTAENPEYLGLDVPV

SMILES: CCOc1cc2ncc(C#N)c(Nc3ccc(OCc4ccccn4)c(Cl)c3)c2cc1NC(=O)/C=C/[C@H]1CCCN1C.O=C(O)/C=C\C(=O)O [Example 1, (E)-N-[4-[[3-chloro-4-(2-pyridylmethoxy)phenyl]amino]-3-cyano-7-ethoxy-6-quinolyl]-3-[(2R)-1-methylpyrrolidin-2-yl]prop-2-enamide maleate]
- Solubility Value, 0.1M Hydrochloric acid (Solubility assay [1]; maleate): 23.33 mg/mL
- Solubility Value, Water (Solubility assay [1]; water, maleate): 12.49 mg/mL
- IC50 (HER-2 kinase): 0.053 µM
- IC50 ([2]; read-out: IC50 (HER-2/SK-BR-3), maleate): 0.064 µM
- half-life [3, 6]: 4.92 ± 0.6 h
- AUC(0-t) [3, 7]: 222 ± 77 µg·h/mL
- MRT [3, 8]: 5.5 ± 0.99 h
- AUC(0-t) ([3]; gavage, 25 mg/kg, maleate): 104.58 ± 56.54 µg·h/mL
- Cmax ([3]; gavage, 25 mg/kg, maleate): 8.99 ± 4.87 µg/mL
- MRT ([3]; gavage, 25 mg/kg, maleate): 8.93 ± 1.39 h
- t1/2 ([3]; gavage, 25 mg/kg, maleate): 4.4 ± 1.3 h
- F (%) ([3]; oral absolute bioavailability, 25 mg/kg (calculated by the base part), maleate): 47.1%
- solubility (Solubility assay [4]; [9]): 0.19 mg/mL

SMILES: CCOc1cc2ncc(C#N)c(Nc3ccc(OCc4ccccn4)c(Cl)c3)c2cc1NC(=O)/C=C/[C@H]1CCCN1C [Example 1f, (E)-N-[4-[[3-chloro-4-(2-pyridylmethoxy)phenyl]amino]-3-cyano-7-ethoxy-6-quinolyl]-3-[(2R)-1-methylpyrrolidin-2-yl]prop-2-enamide]
- Solubility Value, 0.1M Hydrochloric acid (Solubility assay [1]): 1.43 mg/mL (≈ 2450 µM)
- solubility in conventional solvents (in words) (Solubility assay [1]; conventional solvents): poorly soluble
- Solubility Value, Physiological saline (Solubility assay [1]): 0.0026 mg/mL
- IC50 (HER-2 kinase): 0.065 µM
- IC50 ([2]; Homo sapiens, SK-BR-3, 96 h, read-out: IC50 (HER-2/SK-BR-3)): 0.059 µM
- AUC(0-t) ([3]; gavage, 25 mg/kg): 52.81 ± 23.59 µg·h/mL
- F (%) ([3]; oral absolute bioavailability, 25 mg/kg (calculated by the base part)): 42.2%
- AUC(0-t) [3, 10]: 125.4 ± 38.95 µg·h/mL
- MRT [3, 10]: 4.22 ± 0.71 h
- t1/2 [3, 10]: 5.25 ± 2.01 h
- Solubility Value, Water (Solubility assay [4]; water): 0.008 mg/mL (≈ 13.7 µM)

SMILES: CCOc1cc2ncc(C#N)c(Nc3ccc(OCc4ccccn4)c(Cl)c3)c2cc1NC(=O)/C=C/[C@H]1CCCN1C.O=C(O)/C=C\C(=O)O [Example 2, (E)-N-[4-[[3-chloro-4-(2-pyridylmethoxy)phenyl]amino]-3-cyano-7-ethoxy-6-quinolyl]-3-[(2R)-1-methylpyrrolidin-2-yl]prop-2-enamide dimaleate]
- Solubility Value, 0.1M Hydrochloric acid (Solubility assay [1]; dimaleate): 54.88 mg/mL
- Solubility Value, Physiological saline (Solubility assay [1]; dimaleate): 0.36 mg/mL
- IC50 ([5]; Homo sapiens, A-431, 72 h): 0.031 µM
- IC50 (HER-2 kinase): 0.028 µM
- CL/F [3, 11]: 0.29 L/h/kg
- half-life [3, 11]: 4.45 ± 1.63 h
- AUC(0-t) [3, 12]: 116 ± 67.2 µg·h/mL
- Cmax [3, 13]: 10.2 ± 4.41 µg/mL
- MRT [3, 14]: 8.03 ± 0.99 h
- Vd/F [3, 11]: 1.84 ± 1.19 L/kg
- bioavailability ([3]; both sexes, Sprague-Dawley, plasma, po, 25 mg/kg, oral absolute bioavailability, 25 mg/kg (calculated by the base part)): 48.3%
- MRT [3, 15]: 2.96 ± 0.47 h
- t1/2 [3, 15]: 3.74 ± 1.20 h
- Solubility Value, Water (Solubility assay [4]; water, dimaleate): 1.52 mg/mL

SMILES: CCOc1cc2ncc(C#N)c(Nc3ccc(OCc4ccccn4)c(Cl)c3)c2cc1NC(=O)/C=C/[C@H]1CCCN1C.O=C(O)C[C@H](O)C(=O)O [Example 3, (E)-N-[4-[[3-chloro-4-(2-pyridylmethoxy)phenyl]amino]-3-cyano-7-ethoxy-6-quinolyl]-3-[(2R)-1-methylpyrrolidin-2-yl]prop-2-enamide L-malate]
- solubility (Solubility assay [1]): 12.7 mg/mL
- IC50 ([5]; A431 cells, 72 hours, SRB, L-malate): 0.029 µM
- IC50 (HER-2 kinase): 0.071 µM
- IC50 ([2]; L-malate, read-out: IC50 (HER-2/SK-BR-3)): 0.056 µM
- solubility (Solubility assay [4]; [9]): 0.08 mg/mL
- solubility (Solubility assay [4]; [16]): 17.2 mg/mL

SMILES: CCOc1cc2ncc(C#N)c(Nc3ccc(OCc4ccccn4)c(Cl)c3)c2cc1NC(=O)/C=C/[C@H]1CCCN1C.CS(=O)(=O)O [Example 4, (E)-N-[4-[[3-chloro-4-(2-pyridylmethoxy)phenyl]amino]-3-cyano-7-ethoxy-6-quinolyl]-3-[(2R)-1-methylpyrrolidin-2-yl]prop-2-enamide methanesulfonate]
- half-life [3, 6]: 3.77 ± 0.22 h
- AUC(0-t) [3, 7]: 146 ± 40.4 µg·h/mL
- MRT [3, 8]: 5.46 ± 0.48 h
- CL/F [3, 11]: 0.32 L/h/kg
- half-life [3, 11]: 3.67 ± 0.83 h
- AUC(0-t) [3, 12]: 92.3 ± 37 µg·h/mL
- Cmax [3, 13]: 6.92 ± 1.82 µg/mL
- MRT [3, 14]: 8.4 ± 0.65 h
- Vd/F [3, 11]: 1.6 ± 0.54 L/kg
- F (%) ([3]; oral absolute bioavailability, 25 mg/kg (calculated by the base part), methanesulfonate): 63.2%

SMILES: CCOc1cc2ncc(C#N)c(Nc3ccc(OCc4ccccn4)c(Cl)c3)c2cc1NC(=O)/C=C/[C@H]1CCCN1C.CS(=O)(=O)O [Example 5, (E)-N-[4-[[3-chloro-4-(2-pyridylmethoxy)phenyl]amino]-3-cyano-7-ethoxy-6-quinolyl]-3-[(2R)-1-methylpyrrolidin-2-yl]prop-2-enamide dimethanesulfonate]
- AUC(0-t) [3, 17]: 81.53 ± 40.46 µg·h/mL
- Cmax [3, 17]: 7.88 ± 2.51 µg/mL
- MRT [3, 17]: 7.95 ± 0.61 h
- t1/2 [3, 17]: 3.46 ± 0.56 h
- F (%) ([3]; oral absolute bioavailability, 25 mg/kg (calculated by the base part), dimethanesulfonate): 72.1%
- AUC(0-t) [3, 18]: 112.84 ± 62.1 µg·h/mL
- MRT [3, 18]: 4.2 ± 0.99 h
- t1/2 [3, 18]: 3.12 ± 0.37 h

SMILES: CCOc1cc2ncc(C#N)c(Nc3ccc(OCc4ccccn4)c(Cl)c3)c2cc1NC(=O)/C=C/[C@H]1CCCN1C.CS(=O)(=O)O [Example 6, (E)-N-[4-[[3-chloro-4-(2-pyridylmethoxy)phenyl]amino]-3-cyano-7-ethoxy-6-quinolyl]-3-[(2R)-1-methylpyrrolidin-2-yl]prop-2-enamide trimethanesulphonate]
- AUC(0-t) [3, 19]: 81.72 ± 22.16 µg·h/mL
- Cmax [3, 19]: 6.27 ± 1.58 µg/mL
- MRT [3, 19]: 8.59 ± 0.22 h
- t1/2 [3, 19]: 4.15 ± 0.09 h
- F (%) ([3]; oral absolute bioavailability, 25 mg/kg (calculated by the base part), trimethanesulphonate): 50.5%
- AUC(0-t) [3, 20]: 162.28 ± 55.65 µg·h/mL
- MRT [3, 20]: 4.94 ± 0.58 h
- t1/2 [3, 20]: 5.27 ± 0.29 h

SMILES: CCOc1cc2ncc(C#N)c(Nc3ccc(OCc4ccccn4)c(Cl)c3)c2cc1NC(=O)/C=C/[C@H]1CCCN1C.O=C(O)CCC(=O)O [Example 8, (E)-N-[4-[[3-chloro-4-(2-pyridylmethoxy)phenyl]amino]-3-cyano-7-ethoxy-6-quinolyl]-3-[(2R)-1-methylpyrrolidin-2-yl]prop-2-enamide succinate]
- solubility (Solubility assay [1]): 32.4 mg/mL
- IC50 ([5]; A431 cells, 72 hours, SRB, succinate): 0.015 µM
- IC50 (HER-2 kinase): 0.053 µM
- IC50 ([2]; succinate, read-out: IC50 (HER-2/SK-BR-3)): 0.078 µM
- solubility (Solubility assay [4]; [9]): 3.32 mg/mL
- solubility (Solubility assay [4]; [16]): 22.4 mg/mL

Reference: US20130338190A1, “PHARMACEUTICALLY ACCEPTABLE SALT OF (E)-N-[4-[[3-CHLORO-4-(2-PYRIDYLMETHOXY)PHENYL]AMINO]-3-CYANO-7-ETHOXY-6-QUINOLYL]-3-[(2R)-1-METHYLPYRROLIDIN-2-YL]PROP-2-ENAMIDE, PREPARATION METHOD THEREOF, AND MEDICAL USE THEREOF” (priority 2011, published 2013)
